Data: the CheMixHub viscosity set
Where “and” joins values, the source holds several entries; their conditions need not be identical. Equal entries are not always repeated.

Experiment: xn = mol fraction of the nth substance listed

CCC(C)N (stereo not drawn) + COCCO
308.15 K, 101 kPa
Settings	viscosity [mPa·s]
x2 = 0.1256	0.5105
x2 = 0.2443	0.6223
x2 = 0.3566	0.7355
x2 = 0.463	0.8498
x2 = 0.564	0.9507
x2 = 0.6599	1.015
x2 = 0.7511	1.066
x2 = 0.838	1.121
x2 = 0.9209	1.175

CCCCCCO + c1ccccc1
Settings	viscosity [mPa·s]
293.15 K, 100 kPa, x2 = 0.0814	4.394
293.15 K, 100 kPa, x2 = 0.1623	3.612
293.15 K, 100 kPa, x2 = 0.2401	3.045
293.15 K, 100 kPa, x2 = 0.3536	2.371
293.15 K, 100 kPa, x2 = 0.4411	1.932
293.15 K, 100 kPa, x2 = 0.5516	1.507
293.15 K, 100 kPa, x2 = 0.6465	1.218
293.15 K, 100 kPa, x2 = 0.7441	0.979
293.15 K, 100 kPa, x2 = 0.8425	0.828
293.15 K, 100 kPa, x2 = 0.9324	0.728
298.15 K, 101 kPa, x1 = 0.04	0.615
298.15 K, 101 kPa, x1 = 0.078	0.633
298.15 K, 101 kPa, x1 = 0.12	0.663
298.15 K, 101 kPa, x1 = 0.16	0.709
298.15 K, 101 kPa, x1 = 0.34	0.98
298.15 K, 101 kPa, x1 = 0.43	1.195
298.15 K, 101 kPa, x1 = 0.53	1.505
298.15 K, 101 kPa, x1 = 0.75	2.444
303 K, 101.33 kPa, x1 = 0.1001	0.6115
303 K, 101.33 kPa, x1 = 0.2002	0.7018
303 K, 101.33 kPa, x1 = 0.3	0.8271
303 K, 101.33 kPa, x1 = 0.4002	0.9916
303 K, 101.33 kPa, x1 = 0.5004	1.198
303 K, 101.33 kPa, x1 = 0.6012	1.498
303 K, 101.33 kPa, x1 = 0.6985	1.883
303 K, 101.33 kPa, x1 = 0.8	2.387
303 K, 101.33 kPa, x1 = 0.8982	2.971
303.15 K, 100 kPa, x2 = 0.0814	3.292
303.15 K, 100 kPa, x2 = 0.1623	2.773
303.15 K, 100 kPa, x2 = 0.2401	2.333
303.15 K, 100 kPa, x2 = 0.3536	1.832
303.15 K, 100 kPa, x2 = 0.4411	1.514
303.15 K, 100 kPa, x2 = 0.5516	1.175
303.15 K, 100 kPa, x2 = 0.6465	0.951
303.15 K, 100 kPa, x2 = 0.7441	0.797
303.15 K, 100 kPa, x2 = 0.8425	0.684
303.15 K, 100 kPa, x2 = 0.9324	0.604
313 K, 101.33 kPa, x1 = 0.1001	0.5329
313 K, 101.33 kPa, x1 = 0.2002	0.6064
313 K, 101.33 kPa, x1 = 0.3	0.7078
313 K, 101.33 kPa, x1 = 0.4002	0.8581
313 K, 101.33 kPa, x1 = 0.5004	0.9873
313 K, 101.33 kPa, x1 = 0.6012	1.194
313 K, 101.33 kPa, x1 = 0.6985	1.49
313 K, 101.33 kPa, x1 = 0.8	1.852
313 K, 101.33 kPa, x1 = 0.8982	2.274
313.15 K, 100 kPa, x2 = 0.0814	2.463
313.15 K, 100 kPa, x2 = 0.1623	2.077
313.15 K, 100 kPa, x2 = 0.2401	1.772
313.15 K, 100 kPa, x2 = 0.3536	1.428
313.15 K, 100 kPa, x2 = 0.4411	1.201
313.15 K, 100 kPa, x2 = 0.5516	0.954
313.15 K, 100 kPa, x2 = 0.6465	0.789
313.15 K, 100 kPa, x2 = 0.7441	0.661
313.15 K, 100 kPa, x2 = 0.8425	0.581
313.15 K, 100 kPa, x2 = 0.9324	0.525
323 K, 101.33 kPa, x1 = 0.1001	0.4717
323 K, 101.33 kPa, x1 = 0.2002	0.53
323 K, 101.33 kPa, x1 = 0.3	0.613
323 K, 101.33 kPa, x1 = 0.4002	0.7007
323 K, 101.33 kPa, x1 = 0.5004	0.8259
323 K, 101.33 kPa, x1 = 0.6012	0.9863
323 K, 101.33 kPa, x1 = 0.6985	1.209
323 K, 101.33 kPa, x1 = 0.8	1.467
323 K, 101.33 kPa, x1 = 0.8982	1.768
323.15 K, 100 kPa, x2 = 0.0814	1.934
323.15 K, 100 kPa, x2 = 0.1623	1.654
323.15 K, 100 kPa, x2 = 0.2401	1.411
323.15 K, 100 kPa, x2 = 0.3536	1.135
323.15 K, 100 kPa, x2 = 0.4411	0.962
323.15 K, 100 kPa, x2 = 0.5516	0.781
323.15 K, 100 kPa, x2 = 0.6465	0.656
323.15 K, 100 kPa, x2 = 0.7441	0.568
323.15 K, 100 kPa, x2 = 0.8425	0.5
323.15 K, 100 kPa, x2 = 0.9324	0.458

CC(C)CC(C)(C)C + COC(=O)OC
viscosity [mPa·s], 101 kPa
Settings	x2 = 0.1235	x2 = 0.2408	x2 = 0.3521	x2 = 0.4583	x2 = 0.5592	x2 = 0.6554	x2 = 0.7475	x2 = 0.8352	x2 = 0.9193
293.15 K	0.4747	0.4613	0.4659	0.4672	0.4798	0.4974	0.5114	0.5331	0.5636
298.15 K	0.4464	0.4356	0.44	0.4397	0.4483	0.4637	0.4815	0.5015	0.5303
303.15 K	0.4224	0.4116	0.4159	0.4143	0.4231	0.4353	0.4517	0.4719	0.5004
313.15 K	0.3788	0.3706	0.373	0.3699	0.3779	0.3929	0.4049	0.4201	0.4475
323.15 K	0.3424	0.3338	0.3339	0.3344	0.3399	0.3487	0.3616	0.376	0.3958

CC(=O)CC(C)C + CCCCCCCCO
viscosity [mPa·s], 100 kPa
Settings	x1 = 0.0818	x1 = 0.1616	x1 = 0.2492	x1 = 0.3517	x1 = 0.4411	x1 = 0.5629	x1 = 0.6505	x1 = 0.7501	x1 = 0.8518	x1 = 0.9519
293.15 K	7.68	6.48	5.45	4.46	3.71	2.87	2.32	1.72	1.2	0.76
303.15 K	5.45	4.69	3.97	3.27	2.78	2.19	1.8	1.37	0.97	0.65
313.15 K	4	3.46	2.97	2.47	2.1	1.67	1.4	1.11	0.82	0.57
323.15 K	3	2.63	2.28	1.92	1.65	1.34	1.14	0.93	0.71	0.5

C=C(C)[C@@H]1CC=C(C)CC1 + C=CC(C)(O)CCC=C(C)C
viscosity [mPa·s], 101.33 kPa
Settings	x1 = 0.0422	x1 = 0.1332	x1 = 0.2273	x1 = 0.3523	x1 = 0.4816	x1 = 0.562	x1 = 0.6389	x1 = 0.7679	x1 = 0.8478	x1 = 0.9236
298.15 K	4.062	3.237	2.695	2.072	1.626	1.429	1.282	1.101	1.013	0.933
313.15 K	2.37	2.025	1.731	1.427	1.196	1.086	0.998	0.877	0.814	0.755

O=C1CCCCC1 + C1CCCCC1
Settings	viscosity [mPa·s]
298.15 K, 101.3 kPa, x2 = 0.4895	1.275
303.15 K, 101 kPa, x2 = 0.1065	1.596
303.15 K, 101 kPa, x2 = 0.2078	1.451
303.15 K, 101 kPa, x2 = 0.3013	1.32
303.15 K, 101 kPa, x2 = 0.3971	1.214
303.15 K, 101 kPa, x2 = 0.5022	1.102
303.15 K, 101 kPa, x2 = 0.604	1.027
303.15 K, 101 kPa, x2 = 0.7024	0.9614
303.15 K, 101 kPa, x2 = 0.8086	0.8788
303.15 K, 101 kPa, x2 = 0.8742	0.8504
303.15 K, 101 kPa, x2 = 0.9034	0.8387

CC=Cc1ccc2c(c1)OCO2 + CCCCCOC(C)=O
Settings	viscosity [mPa·s]
298.15 K, 101 kPa, x1 = 0.137	0.958

CCOCC + c1ccccc1
Settings	viscosity
293.15 K, 101 kPa, x2 = 0.24	0.3 mPa·s
293.15 K, 101 kPa, x2 = 0.49	0.381 mPa·s
293.15 K, 101 kPa, x2 = 0.74	0.482 mPa·s
293.15 K, 101.33 kPa, x1 = 0.2	0.504 mPa·s and 0.504 mPa·s
293.15 K, 101.33 kPa, x1 = 0.4	0.407 mPa·s
293.15 K, 101.33 kPa, x1 = 0.5	0.371 mPa·s and 0.371 mPa·s
293.15 K, 101.33 kPa, x1 = 0.6	0.339 mPa·s
293.15 K, 101.33 kPa, x1 = 0.8	0.289 mPa·s
298.15 K, 101 kPa, x1 = 0.2529	0.438 mPa·s
298.15 K, 101 kPa, x1 = 0.4438	0.362 mPa·s
298.15 K, 101 kPa, x1 = 0.7248	0.282 mPa·s
298.15 K, 101 kPa, x2 = 0.24	0.288 mPa·s
298.15 K, 101 kPa, x2 = 0.275	0.282 mPa·s
298.15 K, 101 kPa, x2 = 0.49	0.366 mPa·s
298.15 K, 101 kPa, x2 = 0.5563	0.362 mPa·s
298.15 K, 101 kPa, x2 = 0.74	0.455 mPa·s
298.15 K, 101 kPa, x2 = 0.7471	0.438 mPa·s
303.15 K, 101 kPa, x2 = 0.24	0.278 mPa·s
303.15 K, 101 kPa, x2 = 0.49	0.346 mPa·s
303.15 K, 101 kPa, x2 = 0.74	0.43 mPa·s
308.15 K, 101 kPa, x2 = 0.49	0.322 mPa·s
308.15 K, 101 kPa, x2 = 0.74	0.408 mPa·s
